Laboratory results published in patent US8765726B2, “Use of pyridone derivatives in the prevention or treatment of tissue or organ toxicity induced by cytotoxic agents and radiation” (Shanghai Genomics, Inc., priority 2006, dated 2014).

How the values were obtained:
[1] = system: Bleomycin-induced lung fibrosis; test: Bleomycin-induced lung fibrosis in mice (pathology, lung index); assay type: in vivo, C57B6 mice; settings: Bleomycin 5 mg/kg intratracheal day 1, F351 100 mg/kg/day or dexamethasone 3 mg/kg per day gavage for 28 days
Method: Forty eight (48) C57B6 mice (with body weight 16-18 g), half male and half female, were used in the study. Animals were divided into four groups with 12 animals per group. All the animals (except for those in control group) were injected with 5 mg/kg Bleomycin in the volume of 50 ul by intratracheal instillation on day 1 of the study. Animals in control group were injected by PBS instead. […] Pathology examination was performed at day 28.

[2] = system: Cyclosporine A-induced nephrotoxicity; test: Cyclosporine A-induced nephrotoxicity in rats (mean arterial pressure, kidney fibrosis score); assay type: in vivo, Wistar rats; settings: CsA 15 mg/kg subcutaneous + F351 100 mg/Kg/day, once a day for 28 days, low salt diet
Method: 24 male Wistar rats (with body weight 180-220 g) were given low salt diet for 7 days before the study and randomly divided into three groups with 8 rats per group. The groups were named as control group, cyclosporine A (CsA)-treated group, and CsA+[…]-treated group. [table] The animals were treated once a day for 28 days as indicated in the above table. Once every 7 days, the animals were weighed and the dose of CsA and […] were adjusted in terms of body weight. Low salt diet was given to the animals during the whole study period. Mean arterial pressure was determined in alert state of the animals at the end of the study. Renal tissues were also collected for pathology examination.

[3] = system: radiation-induced lung injuries; test: Example 1 repeated with F351 on radiation-induced lung injuries; assay type: in vivo; settings: Prophylactic and therapeutic administration, irradiated mice, twenty per group; 'should show'
Source text: The experiments in Example 1 are repeated, except that 5-methylpyridin-1(4-hydroxyphenyl)-2-(1H)-one (F351) rather than Pirfenidone is used, with twenty mice in each group.

[4] = system: Adriamycin-induced renal toxicity; test: Adriamycin-induced renal toxicity in rats (urine proteins, renal pathology); assay type: in vivo, Wistar rats; settings: Adriamycin 7.5 mg/kg tail vein day 1, F351 250 mg/kg per day gavage for 12 weeks
Method: (§1) 20 male Wistar rats (with body weight 180-220 g) were randomly divided into three groups with 4 rats in control group, 8 rats in Adriamycin-treated group, and 8 rats in Adriamycin+F351-treated group. All the animals (except for those in control group) were injected with 7.5 mg/kg adriamycin by tail vein injection on day 1 of the study. Animals in Adriamycin+F351-treated group were administrated by gauvage with 250 mg/kg F351 per day for 12 weeks starting on day 1 of the study. Animals in the control group were injected with PBS, instead. The study lasted for 12 weeks.
Rat urine was collected 24 hours before the end of the study and amount of urine proteins was determined. Renal tissues were also collected for pathology examination.
as §1, with “injection at” for “injection on”, “study. Animals in control group were injected with PBS instead.” for “study.”, “day 1.” for “day 1 of the study. Animals in the control group were injected with PBS, instead. The study lasted for 12 weeks.”

[5] = Blood level of Pirfenidone capsule in healthy subjects on repeated dosing; assay type: in vivo, human; settings: Twelve healthy subjects, capsule 400 mg once a day or three times a day for 5 days
Method: Twelve healthy subjects were administered with Pirfenidone capsule at the dose of 400 mg, once a day or three times a day. The medication continued for 5 days. The blood level of the medicine was measured every day.

[6] = system: radiation-induced lung injuries; test: Radiation-induced lung injuries in mice (bronchial alveolar lavage cell count, whole-lung hydroxyproline); assay type: in vivo, BALB/C mice; set-up: unit not given here; settings: 1200 cGy chest
Source text: Irradiation source: Varian 600C linear accelerator, 6MV X ray
Irradiation method: The mice, six per row, were each detained in an organic-glass cage. The cage was lid with a 1.5 cm thick organic glass plate to compensate the buildup effect. The source-to-skin distance was 100 cm, the irradiation field was 2.5×18 cm. The animal's head and abdomen were sheltered by the lead baffle of the collimator, and thus only the chest was exposed to the irradiation. The single dose of irradiation is 1200 cGy. A sealed transfer box equipped with an air filtering device should be used to transfer the animals from or back to the animal house.
Animals: 10-week old BALB/C mice
Control Model group (60 mice): The mice were irradiated but not treated with the compound.
(§2) Prophylaxis group (60 mice): The medication at a predetermined dose was started 2 days before the irradiation. The irradiation method and the dosage were the same as in the control group. Pirfenidone was administered by gauvage (200 mg/kg, dissolved in 0.5% CMC-Na and administrated at the volume of 0.1 ml/10 g) once a day for 3 months.
as §2, with “Treatment” for “Prophylaxis”, “medication” for “medication at a predetermined dose”, “at day 0 of” for “2 days before”, “and” for “and the”
Blank control group (60 mice): The mice were not irradiated, and were only administered by gauvage with 0.5% CMC-Na once a day for 3 months.
The mice of each group were observed once a day after irradiation to examine the mortality. The cytometry and cell sorting of the lavage, collagen content measurement (hydroxyproline), pathomorphological observation were conducted periodically after medicament treatment.
Cytometry of the bronchial alveolar lavage liquid: the right lung was perfused with normal saline. 1.5-2.0 ml lavage liquid was collected into an Ependoff tube by gentle suction. The content of the inflammatory cells was counted manually by use of a haemocytometer immediately after collection of the bronchial alveolar lavage liquid.
Measurement of the hydroxyproline content: The measurement was performed with isolated lung tissue by following the instruction in the hydroxyproline kit.
Histopathologic examination: The isolated lung tissue was fixed in formaldehyde solution, pafarrin-imbeded after dehydration, and then subjected to HE staining and Masson trichrome staining. Evaluation criteria: Radiation-induced lung injuries was evaluated according to the standard semi-quantitative scoring of the Ashcroft interstitial pulmonary fibrosis.

[7] = system: radiation-induced lung injuries; test: Tolerance to the therapeutic irradiation dosage, prophylactic Pirfenidone in irradiated mice; assay type: in vivo; settings: Prophylactic administration, 200 mg/kg gavage once a day started 2 days before irradiation
Method: (a) Method: the Same as Described in Example 1. Prophylaxis group (60 mice): The medication was started 2 days before the irradiation. The mice were divided into two groups. The animals were administered by gauvage with Pirfenidone (200 mg/kg, dissolved in 0.5% CMC-Na and administrated at the volume of 0.1 ml/10 g) once a day for 3 months. Each group consisted of 60 mice. The mice of each group were observed once a day after irradiation to examine the dyspnea and mortality. The lung weighing, cytometry and cell sorting of the bronchial alveolar lavage liquid, collagen content measurement (hydroxyproline), measurement of cytokines (ACE, TGF-β, TGF-α etc) in the plasma, and pathomorphological observation were conducted periodically after the medicament treatment.

[8] = system: radiation-induced lung fibrosis; test: Prevention and/or treatment of radiation-induced lung fibrosis in mice (macrophages, fibrosis evaluation, hydroproline); assay type: in vivo, BalB/C male mice; settings: for Cytometry of macrophages / Evaluation on lung fibrosis / Hydroproline level: P + R group: 200 mg/kg/day from two days before 1200 cGy chest radiation for 12 weeks
Method: BalB/C male mice were randomly divided into three groups, namely, Control group (C group), Radiation group (R group), and Pirfenidone+Radiation (P+R group). All the animals were given single dose radiation on chest at 1200 cGy. Drugs were administrated two days before radiation for 12 weeks at 200 mg/kg/day. Examination includes cytometry of macrophages (performed 4 weeks and 8 weeks after drug administration), determination of hydroproline level (performed 16 weeks and 24 weeks after drug administration), and pathology examination of lung tissues by HE staining and Masson staining and evaluation of lung fibrosis by Ashcroft semi-quantitative evaluation standard under a microscope (performed 16 weeks and 24 weeks after drug administration).

[9] = system: bleomycin-induced lung fibrosis; test: Bleomycin-induced lung fibrosis in rat: side effects of dexamethasone compared with pirfenidone
Source text: Dexamethasone treatment was used as positive control in one study was designed to investigate the effects of pirfenidone on bleomycin-induced lung fibrosis in rat.

[10] = Prophylaxis group: 200 mg/kg gavage once a day started 2 days before irradiation, Month 2
[11] = Prophylaxis group: 200 mg/kg gavage once a day started 2 days before irradiation, Month 3
[12] = Prophylaxis group: 200 mg/kg gavage once a day started 2 days before irradiation, Month 4
[13] = Prophylaxis group: 200 mg/kg gavage once a day started 2 days before irradiation, Month 5
[14] = Prophylaxis group: 200 mg/kg gavage once a day started 2 days before irradiation, Month 6
[15] = Treatment group: 200 mg/kg gavage once a day from day 0 of irradiation, Month 2
[16] = Treatment group: 200 mg/kg gavage once a day from day 0 of irradiation, Month 3
[17] = Treatment group: 200 mg/kg gavage once a day from day 0 of irradiation, Month 4
[18] = Treatment group: 200 mg/kg gavage once a day from day 0 of irradiation, Month 5
[19] = Treatment group: 200 mg/kg gavage once a day from day 0 of irradiation, Month 6
[20] = Bleomycin-treated rats plus test drug

Compound: Cc1ccc(=O)n(-c2ccc(O)cc2)c1 [F351, 5-methyl-1-(4-hydroxylphenyl)-2-(1H)-pyridone]
- Lung Index (±S) [1]: 1511.71 ± 945.55
- Pathological changes of the lung (pathology examination, HE and Masson staining) ([1]; day 28): significant improvement
- Score on Kidney Fibrosis [2]: 0.62 ± 0.15
- Mean Arterial Pressure ([2]; x ± s): 16.02 ± 0.27 kPa
- Amount of inflammatory cells in the bronchial alveolar lavage liquid [3]: reduce the amount of inflammatory cells
- Degree of kidney fibrosis by pathology examination [4]: reduced the degree of kidney fibrosis
- Amount of Urine Proteins ([4]; x ± s): 54.32 ± 10.88 mg/24 hrs

Compound: Cc1ccc(=O)n(-c2ccccc2)c1 [Pirfenidone]
- Day on which blood stasis was achieved (blood level of the medicine) [5]: 3 days
- Measurement of hydroxyproline in the whole lung ([6]; Prophylaxis group: 200 mg/kg gavage once a day started 2 days before irradiation, Month 1): 43.85
- Cell count of bronchial alveolar lavage liquid [6, 10]: 2.27
- Measurement of hydroxyproline in the whole lung [6, 10]: 43.81
- Cell count of bronchial alveolar lavage liquid [6, 11]: 2.03
- Measurement of hydroxyproline in the whole lung [6, 11]: 50.46
- Cell count of bronchial alveolar lavage liquid [6, 12]: 4.5
- Measurement of hydroxyproline in the whole lung [6, 12]: 56.98
- Cell count of bronchial alveolar lavage liquid [6, 13]: 27.7
- Measurement of hydroxyproline in the whole lung [6, 13]: 58.1
- Cell count of bronchial alveolar lavage liquid [6, 14]: 15
- Measurement of hydroxyproline in the whole lung [6, 14]: 58.15
- Measurement of hydroxyproline in the whole lung ([6]; Treatment group: 200 mg/kg gavage once a day from day 0 of irradiation, Month 1): 36.11
- Cell count of bronchial alveolar lavage liquid [6, 15]: 5.78
- Measurement of hydroxyproline in the whole lung [6, 15]: 46.36
- Cell count of bronchial alveolar lavage liquid [6, 16]: 1.04
- Measurement of hydroxyproline in the whole lung [6, 16]: 52.13
- Cell count of bronchial alveolar lavage liquid [6, 17]: 8.04
- Measurement of hydroxyproline in the whole lung [6, 17]: 60.38
- Cell count of bronchial alveolar lavage liquid [6, 18]: 45.55
- Measurement of hydroxyproline in the whole lung [6, 18]: 67.92
- Cell count of bronchial alveolar lavage liquid [6, 19]: 39.29
- Measurement of hydroxyproline in the whole lung [6, 19]: 68.24
- Cell count in the bronchial alveolar lavage liquid versus control group [7]: lower than that of the control group
- Toxic effect on BalB/C mice ([8]; 200 mg/kg/day for 12 weeks): little toxic effect
- Cytometry of macrophages ([8]; 4 weeks): 6.67 ± 2.04 1 × 10^4/ml
- Cytometry of macrophages ([8]; 8 weeks): 2.27 ± 1.41 1 × 10^4/ml
- Evaluation on lung fibrosis ([8]; 16 weeks): 29.15 ± 18.74
- Hydroproline level ([8]; 16 weeks): 67.65 ± 11.99 µg/mg
- Evaluation on lung fibrosis ([8]; 24 weeks): 19.46 ± 6.67
- Hydroproline level ([8]; 24 weeks): 79.15 ± 10.90 µg/mg

Compound: C[C@@H]1C[C@H]2[C@@H]3CCC4=CC(=O)C=C[C@]4(C)[C@@]3(F)[C@@H](O)C[C@]2(C)[C@@]1(O)C(=O)CO [dexamethasone]
- Lung Index (±S) [1]: 1083.90 ± 289.66
- Mortality rate [9, 20]: 64.3%
- Number of dead animal [9, 20]: 9/14
- Body weight ([9]; rat, in vivo): Loss of body weight
